Experiment [1] deals with T1, 5-hydroxytryptamine receptor 3A (Homo sapiens, UniProt P46098).
T1 sequence (P46098 whole entry): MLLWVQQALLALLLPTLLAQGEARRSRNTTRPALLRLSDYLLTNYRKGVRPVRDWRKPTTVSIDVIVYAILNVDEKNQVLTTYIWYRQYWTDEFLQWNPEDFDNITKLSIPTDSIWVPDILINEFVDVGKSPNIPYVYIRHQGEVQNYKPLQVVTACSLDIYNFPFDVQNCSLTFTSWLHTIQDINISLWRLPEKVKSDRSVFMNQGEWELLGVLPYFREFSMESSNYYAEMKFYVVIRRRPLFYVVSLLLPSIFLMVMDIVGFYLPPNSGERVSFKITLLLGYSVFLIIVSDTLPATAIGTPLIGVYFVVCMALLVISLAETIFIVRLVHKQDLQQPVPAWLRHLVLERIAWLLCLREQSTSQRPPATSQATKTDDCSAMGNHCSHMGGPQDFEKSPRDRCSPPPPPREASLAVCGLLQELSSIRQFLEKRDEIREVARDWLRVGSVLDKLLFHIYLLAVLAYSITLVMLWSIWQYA
Nature of the experiment: Binding affinity to human 5HT3A receptor in HEK293 cells assessed as cell labeling by confocal microscopy. Type of experiment: cell-based.

Experiment [2] concerns the target T2, 5-hydroxytryptamine receptor 3A (Homo sapiens) (UniProt P46098).
T2 sequence (whole entry): T1 sequence (P46098 whole entry)
Nature of the experiment: Binding affinity to human 5HT3A receptor in HEK293 cells assessed as cell labeling by confocal microscopy in presence of quipazine. Type of experiment: cell-based.

Data on one compound can be found in ChEMBL document CHEMBL1157568, “Toward biophysical probes for the 5-HT3 receptor: structure-activity relationship study of granisetron derivatives” (J Med Chem, 2010).

Activity calls are given as the source filed them. The rule behind the calls is not given here.

For the compound `Cc1cc(C)n2c1C=C1C=CC(NCC(=O)NCCCn3nc(C(=O)N[C@H]4C[C@H]5CCC[C@@H](C4)N5C)c4ccccc43)=[N+]1[B-]2(F)F`, the Ki (usually a measure of affinity in units of concentration, obtained from inhibition or displacement) in experiment [1] worked out at 2.8 nM. Besides, the outcome in experiment [2] was Active.
